Here are results for one compound from patent publication US20200148617A1, “GEMCABENE, PHARMACEUTICALLY ACCEPTABLE SALTS THEREOF, COMPOSITIONS THEREOF AND METHODS OF USE THEREFOR” (GEMPHIRE THERAPEUTICS INC., priority 2017, published 2020).

Series [1] is described as follows: Solubility of gemcabene calcium salt Crystal Form 1 by solvent addition method. It counts as physicochemical. The protocol:
Approximately 20 mg of gemcabene calcium Crystal Form 1 was added to 5×2 mL vials. The solubility in 5 solvents was tested using a solvent addition method. Solvents included acetone, ethanol, ethyl acetate, t-butyl methyl ether (t-BME) and water. Solvent was added in 5 volume (100 μL) aliquots until either dissolution or 2 mL in total had been added. Between each addition, samples were heated to 60° C. (40° C. for acetone and t-BME). Any solids remaining after 24 hours at ambient were analyzed by X-ray powder diffraction (XRPD).

Series [2] in a line: Particle size distribution by laser light diffraction (Malvern Mastersizer 2000, Fraunhofer). It counts as physicochemical. The settings on record: cumulative volume. The protocol:
In some embodiments, the particle size distribution and the PSD90 of a compound of the invention is determined by the laser light diffraction particle size distribution analysis. The particle size distribution is determined in accordance with the Fraunhofer light diffraction method. In this method, a coherent laser beam passes through the sample and the resulting diffraction pattern is focused on a multi-element detector. Since the diffraction pattern depends, among other parameters, on particle size, the particle size distribution can be calculated based on the measured diffraction pattern of the sample. The method is described in more detail in USP38-NF33, <429> Light Diffraction Measurement of Particle Size.
The particle size distribution was determined in accordance with the Fraunhofer light diffraction method. A coherent laser beam was passed through the sample and the resulting diffraction pattern was focused on a multi-element detector. Because the diffraction pattern depends, among other parameters, on particle size, the particle size distribution (PSD) was calculated based on the measured diffraction patter of the sample.
Stock dispersion solution was prepared by adding a few drops of the dispersing aid (e.g., 1% w/w solution of a detergent in white spirit such as Span 80, Fluka (85548-250 ml)) to an appropriate amount of substance and mixed carefully. The dispersion was then slowly diluted to a final volume of about 10 ml while vortexing. The suspension cell of the instrument (Malvern Mastersizer 2000 equipped with Hydro 2000S sample dispersion unit) was filled with dispersion medium and a background measurement was taken. […] The cumulative volume distribution was determined in accordance with the instrument's instruction manual.
The PSD10, PSD50, and PSD90 values were determined from the cumulative volume distribution of each measurement. Values smaller than 10 μm were reported to one decimal place. Results larger than 10 μm were reported as single digit values. Sample parameters used in analysis are shown below: […]

Series [3] in a line: 12-week placebo-controlled study of 600 mg QD in hypercholesterolemia patients on statins: safety and tolerability. It counts as in vivo. The following applies: add-on to highest doses of background statins. The protocol:
High-risk patients including some, but not all those with heterozygous familial hypercholesterolemia (HeFH) or atherosclerotic cardiovascular disease (ASCVD) on appropriate diet and stable statin therapy for at least 12 weeks and LDL-C ≥100 mg/dL (2.59 mmol/L) and triglycerides <500 mg/dL (5.65 mmol/L) were randomized into a 12-week, placebo-controlled, parallel-group, double-blind study to assess the efficacy of gemcabene calcium salt hydrate Crystal Form 1 (PSD90=52 μm) 600 mg (300-mg Tablet D×2) QD on LDL-C and other lipoproteins and hsCRP (high-sensitivity C-reactive protein). Safety and tolerability were also evaluated. The patients were stratified by high- or moderate-intensity statin therapy, with or without ezetimibe, with a target of 52 patients (26 patients on 600 mg gemcabene calcium salt hydrate Crystal Form 1 as administered by 2× Tablet D and 26 patients on placebo (“placebo”)) in each stratum. […] Mean baseline LDL-C for all patients was approximately 134 mg/dL (3.48 mmol/L) with most patients in the high-intensity statin stratum on atorvastatin and most patients in the moderate-intensity stratum on either simvastatin or atorvastatin.
33 of 54 patients (61.1%) in the Tablet D group and 24 of 51 patients (47.1%) in the placebo group who reported at least one AE during the study. The most prevalent AEs were those associated with infections. […]

Where only a bound is given, the exact number is not on record here.

One may read the Solubility as how much of the substance goes into solution per volume.

Consider `CC(C)(CCCCOCCCCC(C)(C)C(=O)[O-])C(=O)[O-].O.[Ca+2]` [6-(5-Carboxy-5-methyl-hexyloxy)-2,2-dimethylhexanoic acid calcium (gemcabene calcium salt) hydrate Crystal Form 1], for which the Solubility was less than 10000 µg/mL in series [1] (/-Butyl Methyl Ether (t-BME)); less than 10000 µg/mL in series [1] (Acetone); less than 10000 µg/mL in series [1] (Ethanol); less than 10000 µg/mL in series [1] (Ethyl Acetate); 33000 µg/mL in series [1] (Water). For the same compound, the “D10 (PSD10)” value in series [2] is “D10 = 8.9 μm”. Further, the “D50 (PSD50)” value in series [2] is given as “D50 = 24.3 μm”. Also, the “D90 (PSD90)” value in series [2] is on record as “D90 = 44.1 μm”. In series [3], the “muscle or liver related toxicities” value is “No evidence”.
